Source: ChEMBL document CHEMBL3734758, “Protective effects of 5,7,4'-trihydroxy-6,3'dimethoxy-flavone 5-O-α-l-rhamnopyranoside, isolated from Annona squamosa leaves in thyrotoxicosis and in hepatic lipid peroxidation in rats” (Bioorg Med Chem Lett, 2015)
Calls of active or inactive are those of the source. No cut-off for these calls is given here.

Tests used:
[1] = test system: Rattus norvegicus; experiment: Inhibition of L-T4-induced increase in T4 level in albino Wistar rat at 2.5 mg/kg/day, po cotreated with 0.5 mg/kg L-T4 for 15 days by RIA (reference value: 112.86 +/- 4.77 ng/ml); assay type: functional
[2] = test system: Rattus norvegicus; experiment: Inhibition of L-T4-induced decrease in SOD activity in albino Wistar rat liver at 5 mg/kg/day, po cotreated with 0.5 mg/kg L-T4 for 15 days; assay type: functional, organism-based
[3] = test system: Rattus norvegicus; experiment: Inhibition of L-T4-induced increase in T4 level in albino Wistar rat at 5 mg/kg/day, po cotreated with 0.5 mg/kg L-T4 for 15 days by RIA (reference value: 112.86 +/- 4.77 ng/ml); assay type: functional
[4] = test system: Rattus norvegicus; experiment: Toxicity in albino Wistar rat assessed as low-density lipoprotein cholesterol level at 5 mg/kg/day, po for 15 days (reference value: 83.85 +/- 2.96 mg/dl); assay type: organism-based; settings: in vivo, 360 h
[5] = test system: Rattus norvegicus; experiment: Inhibition of L-T4-induced decrease in high-density lipoprotein cholesterol in albino Wistar rat at 5 mg/kg/day, po cotreated with 0.5 mg/kg L-T4 for 15 days (reference value: 20.18 +/- 2.32 mg/dl); assay type: functional
[6] = test system: Rattus norvegicus; experiment: Toxicity in albino Wistar rat assessed as high-density lipoprotein cholesterol level at 5 mg/kg/day, po for 15 days (reference value: 45.52 +/- 3.08 mg/dl); assay type: organism-based; settings: in vivo, 360 h
[7] = test system: Rattus norvegicus; experiment: Inhibition of L-T4-induced increase in lipid peroxidation in albino Wistar rat assessed as malondialdehyde formed per mg of protein at 5 mg/kg/day, po cotreated with 0.5 mg/kg L-T4 for 15 days (reference value: 0.977 +/- 0.035 nM/hr); assay type: functional
[8] = test system: Rattus norvegicus; experiment: Inhibition of L-T4-induced increase in Glucose-6-phosphate activity in albino Wistar rat at 5 mg/kg/day, po cotreated with 0.5 mg/kg L-T4 for 15 days […]; assay type: functional, organism-based
[9] = test system: Rattus norvegicus; experiment: Toxicity in albino Wistar rat assessed as triglyceride level at 5 mg/kg/day, po for 15 days (reference value: 73.33 +/- 3.1 mg/dl); assay type: organism-based; settings: in vivo, 360 h
[10] = test system: Rattus norvegicus; experiment: Inhibition of L-T4-induced decrease in total cholesterol level in albino Wistar rat at 5 mg/kg/day, po cotreated with 0.5 mg/kg L-T4 for 15 days (reference value: 58.77 +/- 3.95 mg/dl); assay type: functional
[11] = test system: Rattus norvegicus; experiment: Toxicity in albino Wistar rat assessed as total cholesterol level at 5 mg/kg/day, po for 15 days (reference value: 114.97 +/- 4.76 mg/dl); assay type: organism-based; settings: in vivo, 360 h
[12] = test system: Rattus norvegicus; experiment: Inhibition of L-T4-induced increase in lipid peroxidation in albino Wistar rat assessed as malondialdehyde formed per mg of protein at 2.5 mg/kg/day, po cotreated with 0.5 mg/kg L-T4 for 15 days (reference value: 0.977 +/- 0.035 nM/hr); assay type: functional
[13] = test system: Rattus norvegicus; experiment: Inhibition of L-T4-induced increase in lipid peroxidation in albino Wistar rat assessed as malondialdehyde formed per mg of protein at 10 mg/kg/day, po cotreated with 0.5 mg/kg L-T4 for 15 days (reference value: 0.977 +/- 0.035 nM/hr); assay type: functional
[14] = test system: Rattus norvegicus; experiment: Inhibition of L-T4-induced increase in hepatic 5-monodeiodinase-l activity in albino Wistar rat assessed as T3 formation at 5 mg/kg/day, po cotreated with 0.5 mg/kg L-T4 for 15 days by RIA; assay type: functional, organism-based
[15] = test system: Rattus norvegicus; experiment: Inhibition of L-T4-induced decrease in catalase activity in albino Wistar rat liver assessed as H2O2 decomposition at 5 mg/kg/day, po cotreated with 0.5 mg/kg L-T4 for 15 days by spectrophotmetry; assay type: functional, organism-based
[16] = test system: Rattus norvegicus; experiment: Inhibition of L-T4-induced increase in T3 level in albino Wistar rat at 5 mg/kg/day, po cotreated with 0.5 mg/kg/day L-T4 for 15 days by RIA (reference value: 1.55 +/- 0.131 ng/ml); assay type: functional
[17] = test system: Rattus norvegicus; experiment: Inhibition of L-T4-induced increase in T3 level in albino Wistar rat at 2.5 mg/kg/day, po cotreated with 0.5 mg/kg L-T4 for 15 days by RIA (reference value: 1.55 +/- 0.131 ng/ml); assay type: functional
[18] = test system: Rattus norvegicus; experiment: Inhibition of L-T4-induced decrease in GSH level in albino Wistar rat liver at 5 mg/kg/day, po cotreated with 0.5 mg/kg L-T4 for 15 days; assay type: functional, organism-based
[19] = test system: Rattus norvegicus; experiment: Inhibition of L-T4-induced increase in T3 level in albino Wistar rat at 10 mg/kg/day, po cotreated with 0.5 mg/kg L-T4 for 15 days by RIA (reference value: 1.55 +/- 0.131 ng/ml); assay type: functional
[20] = test system: Rattus norvegicus; experiment: Inhibition of L-T4-induced increase in T4 level in albino Wistar rat at 10 mg/kg/day, po cotreated with 0.5 mg/kg L-T4 for 15 days by RIA (reference value: 112.86 +/- 4.77 ng/ml); assay type: functional
[21] = test system: Rattus norvegicus; experiment: Inhibition of L-T4-induced decrease in triglyceride level in albino Wistar rat at 5 mg/kg/day, po cotreated with 0.5 mg/kg L-T4 for 15 days (reference value: 42.15 +/- 3.23 mg/dl); assay type: functional
[22] = test system: Rattus norvegicus; experiment: Inhibition of L-T4-induced decrease in low-density lipoprotein cholesterol in albino Wistar rat at 5 mg/kg/day, po cotreated with 0.5 mg/kg L-T4 for 15 days (reference value: 31.68 +/- 4.25 mg/dl); assay type: functional
[23] = test system: Rattus norvegicus; experiment: Toxicity in albino Wistar rat assessed as very low-density lipoprotein cholesterol level at 5 mg/kg/day, po for 15 days (reference value: 14.85 +/- 2.43 mg/dl); assay type: organism-based; settings: in vivo, 360 h
[24] = test system: Rattus norvegicus; experiment: Inhibition of L-T4-induced decrease in very low-density lipoprotein cholesterol in albino Wistar rat at 5 mg/kg/day, po cotreated with 0.5 mg/kg L-T4 for 15 days (reference value: 8.65 +/- 2.76 mg/dl); assay type: functional
[25] = test system: Rattus norvegicus; experiment: Inhibition of L-T4-induced loss of body weight in albino Wistar rat assessed as increase in body weight at 5 mg/kg/day, po cotreated with 0.5 mg/kg L-T4 for 15 days […]; assay type: functional, organism-based

## COc1cc(-c2cc(=O)c3c(O[C@@H]4O[C@@H](C)[C@H](O)[C@@H](O)[C@H]4O)c(OC)c(O)cc3o2)ccc1O
[1]
  Activity: 98.6 ng/mL
[2]
  inhibition: Active
[3]
  Activity: 56.7 ng/mL
[4]
  Activity: 60.16 mg/dL
[5]
  Activity: 40.95 mg/dL
[6]
  Activity: 48.97 mg/dL
[7]
  Activity: 0.239 nM/h
[8]
  inhibition: Active
[9]
  Activity: 61.1 mg/dL
[10]
  Activity: 98.14 mg/dL
[11]
  Activity: 96.22 mg/dL
[12]
  Activity: 0.619 nM/h
[13]
  Activity: 0.512 nM/h
[14]
  inhibition: Active
[15]
  inhibition: Active
[16]
  Activity: 0.43 ng/mL
[17]
  Activity: 1.01 ng/mL
[18]
  inhibition: Active
[19]
  Activity: 1.39 ng/mL
[20]
  Activity: 102.45 ng/mL
[21]
  Activity: 68.31 mg/dL
[22]
  Activity: 72.42 mg/dL
[23]
  Activity: 12.91 mg/dL
[24]
  Activity: 14.09 mg/dL
[25]
  Activity: Active
